Laboratory results reported in ChEMBL document CHEMBL3887008, “Pyrrolinone carboxamide compounds useful as endothelial lipase inhibitors” (2016).

Molecular target: T1, Endothelial lipase (Homo sapiens, UniProt Q9Y5X9)
T1 sequence (Q9Y5X9 whole entry): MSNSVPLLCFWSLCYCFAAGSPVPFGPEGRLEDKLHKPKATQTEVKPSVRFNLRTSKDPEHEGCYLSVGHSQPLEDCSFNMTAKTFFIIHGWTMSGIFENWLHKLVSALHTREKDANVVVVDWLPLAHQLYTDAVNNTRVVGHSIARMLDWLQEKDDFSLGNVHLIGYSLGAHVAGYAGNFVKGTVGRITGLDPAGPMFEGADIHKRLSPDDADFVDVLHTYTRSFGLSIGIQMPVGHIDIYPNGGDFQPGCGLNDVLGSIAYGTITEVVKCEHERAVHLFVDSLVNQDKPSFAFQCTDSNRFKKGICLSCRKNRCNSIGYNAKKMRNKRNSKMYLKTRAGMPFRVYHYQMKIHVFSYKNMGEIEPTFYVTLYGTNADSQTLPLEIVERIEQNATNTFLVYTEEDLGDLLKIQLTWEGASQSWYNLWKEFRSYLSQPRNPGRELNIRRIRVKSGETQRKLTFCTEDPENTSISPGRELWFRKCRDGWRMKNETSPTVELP
Test: Enzymatic Assay: Endothelial lipase activity was measured using a fluorescent substrate, A10070, (Invitrogen, CA) doped into an artificial vesicle containing DMPG (Avanti Polar Lipids) as the excipient. Vesicles were prepared by combining 285 uL of 1 mMDMPG in a 1:1 mixture of MeOH and CHCl3 with 15 uL of 1 mM A10070 in a 1:1 mixture of MeOH and CHCl3. The mixture was dried under nitrogen and resuspended in 150 uL of 50 mM HEPES pH 8.0 buffer containing 100 mM NaCl and 0.2 mM EDTA. The sample was allowed to sit at rt for 15 min and then was sonicated 3x4 mins on ice with a Branson Sonicator using duty cycle 1. This preparation provides vesicles with a mole fraction of 0.05 for the FRET substrate.The enzymatic assay was measured using white, opaque 96-well half area plates. Each well contained 60 uL of assay buffer (50 mM HEPES pH 8.0, 50 mM NaCl and 1 mM CaCl2) and 2 ul of a DMSO solution containing compound of interest. Conditioned media obtained from HT-1080 cells, which were transformed by RAGE technology (Athersys) to overexpress endogenous EL, was added and the reaction was allowed to incubate for 20 min at 37deg; C. with gentle agitation. The reaction was started by the addition of 20 uL of a 1:4 dilution of vesicles. The final total reaction volume was 100 uL. The reaction rates were measured on a Gemini plate reader with an excitation wavelength of 488 nm and a emission of 530 nm. Readings were taken every 20 seconds for 10 min with agitation between each reading. The slope of the linear portion of the readout was used to calculate the rate of the reaction.
Type: cell-based

Row | IC50 | SMILES
1 | 27 nM | CN1CC(C(=O)NCc2ccc(Oc3ccc(Cl)c(Cl)c3)cc2)=C(O)C1=O
2 | 27.1 nM | CC(=O)Nc1ccc(-c2cccc([C@@H](C)NC(=O)C3=C(O)C(=O)N(c4ccc(F)cc4F)C3)c2)cc1
3 | 43 nM | CN1CC(C(=O)NCc2ccc(Oc3ccccc3)cc2)=C(O)C1=O
4 | 22.1 nM | CN1CC(C(=O)NCCCOc2cccc(Oc3ccccc3)c2)=C(O)C1=O
